Results on one molecule are retold here after paper PMC4580987, “Catalytic site inhibition of insulin-degrading enzyme by a small molecule induces glucose intolerance in mice” (Nature Communications, 2015).

The test system of this test is human SY5Y neuroblastoma cells. Nature of the test: Aβ1–40 secretion by differentiated SH-SY5Y cells (ELISA). Format: cell-based. Conditions: 10 μM and 30 μM, 48 h. The method, then: The human neuroblastoma cell lines SH-SY5Y were provided from ATCC (cat. no. crl2266) with a Certificate of Analysis and not checked in the lab for mycoplasma contamination. […] SH-SY5Y were seeded in a 96-well plate at 200,000 cells per cm^2. […] Differentiated cells were then incubated with compounds at 10 μM and 30 μM in presence of 0.1% DMSO.

“Also recorded” adds a separate entry of the source.

As for `O=C(C[C@@H](Cc1ccc2ccccc2c1)n1cc(CNC(=O)c2ccc(F)cc2)nn1)NO` [Compound 1], the “Aβ1–40 in culture supernatants” value is “significant elevations; also recorded: significantly increased; also recorded: dose-dependent increase”.
